Reference: patent publication US9725445B2, “Cycloalkyl nitrile pyrazolo pyridones as Janus kinase inhibitors” (Merck Sharp & Dohme Corp., priority 2013, dated 2017)
pIC50: −log10 of the molar value. Counter-ions that a name gives are not always drawn.

What was measured:
JAK1 = JAK1 (Homo sapiens (Human), UniProt P23458); test: Jak biochemical HTRF assay, JAK1; settings: HTRF biochemical assay, recombinant GST-tagged catalytic domain; read-out: JAK1 IC50
JAK2 = JAK2 (Homo sapiens (Human), UniProt O60674); test: Jak biochemical HTRF assay, JAK2; settings: HTRF biochemical assay, recombinant GST-tagged catalytic domain; read-out: JAK2 IC50
Sequence of JAK2 (O60674 849-1124): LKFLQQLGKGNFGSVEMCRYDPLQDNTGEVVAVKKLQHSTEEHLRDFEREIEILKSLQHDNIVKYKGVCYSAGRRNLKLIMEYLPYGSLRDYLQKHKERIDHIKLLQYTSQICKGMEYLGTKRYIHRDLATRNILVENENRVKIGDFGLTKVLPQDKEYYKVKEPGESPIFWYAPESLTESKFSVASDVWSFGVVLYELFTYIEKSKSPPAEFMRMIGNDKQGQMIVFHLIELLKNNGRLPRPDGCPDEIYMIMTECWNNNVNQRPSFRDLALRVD

Sequence of JAK1 (P23458 875-1153): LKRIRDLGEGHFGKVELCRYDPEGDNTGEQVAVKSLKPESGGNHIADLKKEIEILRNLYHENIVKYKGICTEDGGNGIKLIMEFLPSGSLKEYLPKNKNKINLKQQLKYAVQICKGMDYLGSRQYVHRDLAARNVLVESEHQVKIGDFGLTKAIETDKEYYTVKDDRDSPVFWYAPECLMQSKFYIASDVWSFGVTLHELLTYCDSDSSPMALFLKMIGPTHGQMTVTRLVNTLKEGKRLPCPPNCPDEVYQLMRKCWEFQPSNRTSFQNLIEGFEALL

SMILES | pIC50 (JAK1) | pIC50 (JAK2)
N#CCC1(n2nc(Nc3ccc(C(N)C(F)F)cc3)c3c(=O)[nH]ccc32)CCCCC1 (single isomer, unassigned) [Example 9-1, (S or R)-2-(1-(3-(4-(1-Amino-2,2-difluoroethyl)phenylamino)-4-oxo-4,5-dihydro-1H-pyrazolo[4,3-c]pyridin-1-yl)cyclohexyl)acetonitrile] | 9.72 | 9.33
N#C[C@H]1CCC[C@@H]1n1nc(Nc2ccc(C(N)C(F)(F)F)cc2)c2c(=O)[nH]ccc21 (single isomer, unassigned) [Example 3-104, (1S,2S)-2-[3-({4-[(1S or 1R)-1-amino-2,2,2-trifluoroethyl]phenyl}amino)-4-oxo-4,5-dihydro-1H-pyrazolo[4,3-c]pyridin-1-yl]cyclopentanecarbonitrile] | 9.66 | 9.23
N#C[C@H]1CCCC[C@@H]1n1nc(Nc2ccc3c(c2)CC2(CCOCC2)S3(=O)=O)c2c(=O)[nH]ccc21 [Example 21-3, (1S,2S)-2-{3-[(1,1-dioxido-2′,3′,5′,6′-tetrahydro-3H-spiro[1-benzothiophene-2,4′-pyran]-5-yl)amino]-4-oxo-4,5-dihydro-1H-pyrazolo[4,3-c]pyridin-1-yl}cyclohexanecarbonitrile] | 10.16 | 9.74
N#C[C@H]1C[C@H](O)CC[C@@H]1n1nc(Nc2ccc(Cl)cc2)c2c(=O)[nH]ccc21 [Example 3-90, (1S,2S,5R)-2-(3-((4-chlorophenyl)amino)-4-oxo-4,5-dihydro-1H-pyrazolo[4,3-c]pyridin-1-yl)-5-hydroxycyclohexanecarbonitrile] | 9.55 | 8.14
CC(C)(c1ccc(Nc2nn([C@H]3CCCC[C@@H]3C#N)c3cc[nH]c(=O)c23)cc1)n1ccnn1 [Example 3-147, (1S,2S)-2-[3-({4-[1-methyl-1-(1H-1,2,3-triazol-1-yl)ethyl]phenyl}amino)-4-oxo-4,5-dihydro-1H-pyrazolo[4,3-c]pyridin-1-yl]cyclohexanecarbonitrile] | 9.77 | 9.30
CC1(N2Cc3cc(Nc4nn([C@H]5CCCC[C@@H]5C#N)c5cc[nH]c(=O)c45)ccc3S2(=O)=O)CCOCC1 [Example 15-64, (1S,2S)-2-(3-{[2-(4-methyltetrahydro-2H-pyran-4-yl)-1,1-dioxido-2,3-dihydro-1,2-benzisothiazol-5-yl]amino}-4-oxo-4,5-dihydro-1H-pyrazolo[4,3-c]pyridin-1-yl)cyclohexanecarbonitrile] | 10.16 | 9.77
CC(C)(O)c1cn(Cc2ccc(Nc3nn([C@H]4CCCC[C@@H]4C#N)c4cc[nH]c(=O)c34)cc2)nn1 [Example 3-52, (1S,2S)-2-{3-[(4-{[4-(1-hydroxy-1-methylethyl)-1H-1,2,3-triazol-1-yl]methyl}phenyl)amino]-4-oxo-4,5-dihydro-1H-pyrazolo[4,3-c]pyridin-1-yl}cyclohexanecarbonitrile] | 9.80 | 9.39
COCC(C)(C)N1Cc2cc(Nc3nn([C@H]4CCCC[C@@H]4C#N)c4cc[nH]c(=O)c34)ccc2S1(=O)=O [Example 3-160, (1S,2S)-2-(3-{[2-(2-methoxy-1,1-dimethylethyl)-1,1-dioxido-2,3-dihydro-1,2-benzisothiazol-5-yl]amino}-4-oxo-4,5-dihydro-1H-pyrazolo[4,3-c]pyridin-1-yl)cyclohexanecarbonitrile] | 10.31 | 9.72
N#C[C@H]1C[C@@H](N2CCC2)CC[C@@H]1n1nc(Nc2ccc(C(F)(F)F)cc2)c2c(=O)[nH]ccc21 [Example 5-8, (1S,2S,5S)-5-(azetidin-1-yl)-2-(4-oxo-3-((4-(trifluoromethyl)phenyl)amino)-4,5-dihydro-1H-pyrazolo[4,3-c]pyridin-1-yl)cyclohexanecarbonitrile] | 9.06 | 7.66
N#C[C@H]1CCCC[C@@H]1n1nc(Nc2ccccc2)c2c(=O)[nH]ccc21 [Example 3-25, (1S,2S)-2-[4-oxo-3-(phenylamino)-4,5-dihydro-1H-pyrazolo[4,3-c]pyridin-1-yl]cyclohexanecarbonitrile] | 9.35 | 8.49
N#C[C@H]1CCCC[C@@H]1n1nc(Nc2cccc(CNCC(F)(F)F)c2)c2c(=O)[nH]ccc21 [Example 3-39, (1S,2S)-2-{4-oxo-3-[(3-{[(2,2,2-trifluoroethyl)amino]methyl}phenyl)amino]-4,5-dihydro-1H-pyrazolo[4,3-c]pyridin-1-yl}cyclohexanecarbonitrile] | 9.19 | 8.74

Continued, values first:

pIC50 (JAK1) | pIC50 (JAK2) | SMILES
9.42 | 9.24 | N#C[C@H]1CCCC[C@@H]1n1nc(Nc2ccc([C@@H]3C[C@H]4CC[C@@H](C3)N4)cc2)c2c(=O)[nH]ccc21 [Example 20-1, (1S,2S)-2-(3-((4-((1R,3S,5S)-8-azabicyclo[3.2.1]octan-3-yl)phenyl)amino)-4-oxo-4,5-dihydro-1H-pyrazolo[4,3-c]pyridin-1-yl)cyclohexanecarbonitrile hydrochloride]
8.64 | 8.42 | CC(C)(C)OC(=O)NCc1cc(F)cc(Nc2nn([C@H]3CCCC[C@@H]3C#N)c3cc[nH]c(=O)c23)c1 [Example 3-36, tert-butyl [3-({1-[(1S,25)-2-cyanocyclohexyl]-4-oxo-4,5-dihydro-1H-pyrazolo[4,3-c]pyridin-3-yl}amino)-5-fluorobenzyl]carbamate]
9.54 | 8.70 | N#C[C@H]1CCCC[C@@H]1n1nc(Nc2ccc(CNC(=O)c3ncccn3)cc2)c2c(=O)[nH]ccc21 [Example 3-30, N-[4-({1-[(1S,2S)-2-cyanocyclohexyl]-4-oxo-4,5-dihydro-1H-pyrazolo[4,3-c]pyridin-3-yl}amino)benzyl]pyrimidine-2-carboxamide]
9.59 | 8.92 | Cc1cc(Nc2nn([C@@H]3CCCCC[C@H]3C#N)c3cc[nH]c(=O)c23)ccc1C(O)C(F)(F)F (single isomer, unassigned) [Example 15-68, (1R,2R or 1S,2S)-2-[3-({3-methyl-4-[(1R or 1S)-2,2,2-trifluoro-1-hydroxyethyl]phenyl}amino)-4-oxo-4,5-dihydro-1H-pyrazolo[4,3-c]pyridin-1-yl]cycloheptanecarbonitrile]
9.66 | 9.14 | N#C[C@H]1CCCC[C@@H]1n1nc(Nc2ccc3c(c2)CNC3C(F)F)c2c(=O)[nH]ccc21 (single isomer, unassigned) [Example 15-27, (1S,2S)-2-(3-{[(1R or 1S)-1-(difluoromethyl)-2,3-dihydro-1H-isoindol-5-yl]amino}-4-oxo-4,5-dihydro-1H-pyrazolo[4,3-c]pyridin-1-yl)cyclohexanecarbonitrile]
9.85 | 9.62 | CC(C)(c1ccc(Nc2nn([C@H]3CCCC[C@@H]3C#N)c3cc[nH]c(=O)c23)cc1)n1nccn1 [Example 15-29, (1S,2S)-2-[3-({4-[1-methyl-1-(2H-1,2,3-triazol-2-yl)ethyl]phenyl}amino)-4-oxo-4,5-dihydro-1H-pyrazolo[4,3-c]pyridin-1-yl]cyclohexanecarbonitrile]
9.46 | 8.19 | CC1(O)CN([C@@H]2CC[C@H](n3nc(Nc4ccc(Cl)cc4)c4c(=O)[nH]ccc43)[C@@H](C#N)C2)C1 [Example 5-21, (1S,2S,5R)-2-(3-((4-chlorophenyl)amino)-4-oxo-4,5-dihydro-1H-pyrazolo[4,3-c]pyridin-1-yl)-5-(3-hydroxy-3-methylazetidin-1-yl)cyclohexanecarbonitrile]
